# Experimental data published in patent US20090105301A1, “9A-SUBSTITUTED AZALIDES FOR THE TREATMENT OF MALARIA” (priority 2006, published 2009).
# Experiments:
# [1] = test system: Plasmodium falciparum strain W2; assay: In vitro screening protocol II, [3H] hypoxanthine incorporation IC50 assay, W2; format: cell-based; details: P. falciparum W2; for IC50: Plasmodium falciparum
# Procedure: (§1) The protocol described here is a modification of the in vitro screening protocol I and the details of the methodology are given below.
# (§2) Plasmodium falciparum strains 3D7A and W2.
# (§3) The culture medium comprised RPMI 1640 with 25 mM HEPES, sodium bicarbonate and glutamine (GIBCO™ cat. ref.: 52400), supplemented with 10% of pooled human sera AB (Bioreclamation HMSRM-AB)) and HT supplement (0.15 mM hypoxanthine and 24 μM thymidine), (GIBCO™ cat. ref.: 41065). Human sera were decomplemented 30 min. at 56° C., aliquoted and stored frozen at −20° C. until use in this culture medium.
# (§4) This culture medium (“complete medium”) was usually prepared fresh just before use and pre-warmed to 37° C.
# (§5) Red blood cells AB− stock suspensions were prepared from whole blood bags coming from incomplete blood donation, provided by the Spanish Red Cross (<25 days after sampling). This “whole blood” was aliquoted and stored at 4° C.
# (§6) To prepare red blood cells for the assay, the whole blood was centrifuged and washed 3 times with RPMI without serum. The upper phase, containing white blood cells was removed. The washed red blood cells were kept as a 50% suspension in complete medium. The prepared cells were stored at 4° C. and were employed in the assay at any time up to 4 days after preparation.
# (§7) Test compounds were dissolved at 2 mg/ml in 100% DMSO on the day of the assay. If necessary, complete dissolution was achieved by gentle heating (the mixture was heated at a temperature <37° C.) and sonication (sonication bath).
# (§8) For IC50 determinations, 10 serial 2-fold dilutions were prepared in complete medium in the presence of a constant amount of DMSO. Any obvious signs of insolubility of the stock solutions in 100% DMSO or precipitation when these solutions were diluted in assay media, were recorded.
# (§9) Plasmodium falciparum strains were maintained in complete medium at 5% of hematocrit in continuous culture using a method adapted from Trager W. and Jensen J. B. (Human malaria parasites in continuous culture Science 193 (4254) (1976) 673-675) and Trager W. (Cultivation of malaria parasites Methods Cell Biol. 45 (1994) 7-26).
# (§10) The parasitemia was calculated by counting the percentage of parasitized erythrocytes by optical microscopy. Thin films of blood were made every day from each culture flask, fixed with methanol and stained for 10 min. in Giemsa (Merck, cat ref.: 1.09204) at 10% in buffered water pH 7.2. The glass slides were observed and counted with an optical microscope (Nikon, Eclipse E200) equipped with a 100× immersion oil objective.
# (§11) The culture was maintained at 5% of hematocrit, with a daily change of medium and was diluted when parasitemia had reached about 5%.
# (§12) [^3H] Hypoxanthine incorporation assay was conducted using a method adapted from Desjardins R. E. et al. (Quantitative assessment of antimalarial activity in vitro by a semiautomated microdilution technique. Antimicrob. Agents Chemother., 16 (6) (1979) 710-718). The assays were performed in 96 wells flat bottom microplates.
# (§13) 1. Serial dilutions of each test compound (25 μl of a 5× solution/well) were deposited in one row of assay microtiter plate. Compounds of this invention were tested in this assay. Chloroquine and Azithromycin were used as control compounds for each assay.
# (§14) 2. […] 100 μl of the resulting suspension was distributed into each well of columns 1-11 of assay microtiter plate leading to a final volume of 125 μl per well, at 1.2% of hematocrit and 0.4% of parasitemia/well.
# (§15) 3. In each plate, 2 columns were reserved for control wells: • Column 11 (comprising wells A11-H11): Positive control wells: Untreated PRBCs to compare with cultures treated with test compounds. • Column 12 (comprising wells A12-H12): • Background value wells: Uninfected RBCs—blank control to obtain the background reading from RBCs without parasites (at 1.2% of hematocrite value).
# (§16) 4. The plates were incubated at 37° C. under low oxygen atmosphere. […]
# [2] = test system: Plasmodium falciparum strain 3D7A; assay: In vitro screening protocol II, [3H] hypoxanthine incorporation IC50 assay, 3D7A; format: cell-based; details: P. falciparum 3D7A; for IC50: Plasmodium falciparum
# Procedure: as §1, §2, §3, §4, §5, §6, §7, §8, §9, §10, §11, §12, §13, §14, §15, §16
# [3] = test system: P. falciparum W2 (CDC/Indochina III, W-2); assay: In vitro screening protocol I, [3H]-hypoxanthine incorporation, W2; format: cell-based, Plasmodium falciparum; details: In vitro screening protocol I, P. falciparum W2
# Outline: (§17)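 Asexual blood-stage P. falciparum was cultured in human A+ erythrocytes at 37 °C under 5% CO2/5% O2, and growth was measured by [3H]-hypoxanthine incorporation over 72 h total. TM91C235 was prescreened at 25,000, 2,500 and 25 ng/ml in folate-free medium. D-6 and W-2 IC50s came from 11-point two-fold dilutions by logistic fit.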
# P. falciparum TM91C235 = assay: In vitro screening protocol I, [3H]-hypoxanthine incorporation, TM91C235; format: cell-based, Plasmodium falciparum; details: In vitro screening protocol I, P. falciparum TM91C235
# [4] = test system: P. falciparum D6 (CDC/Sierra Leone I, D-6); assay: In vitro screening protocol I, [3H]-hypoxanthine incorporation, D6; format: cell-based, Plasmodium falciparum; details: In vitro screening protocol I, P. falciparum D6
# Outline: as §17
compound,measurement,setting,value
"CC[C@H]1OC(=O)[C@H](C)[C@@H](O[C@H]2C[C@@](C)(OC)[C@@H](O)[C@H](C)O2)[C@H](C)[C@@H](O[C@@H]2O[C@H](C)C[C@H](N(C)C)[C@H]2O)[C@](C)(O)C[C@@H](C)CN(CCCNC(=O)CCc2ccc(F)cc2)[C@H](C)[C@@H](O)[C@]1(C)O.O=CO [Example 70, 9a-(3-{[3-(4-Fluorophenyl)propanoyl]amino}propyl)-9-deoxo-9-dihydro-9a-aza-9a-homoerythromycin A Formiate Salt]",IC50 W2,[1],C (200 < X ≦ 1000)
same,IC50 3D7A,[2],D (1000 < X ≦ 2500)
"CCC1OC(=O)C(C)C(OC2CC(C)(OC)C(O)C(C)O2)C(C)C(OC2OC(C)CC(N(C)C)C2O)C(C)(O)CC(C)CN(CCCNC(=O)Cc2ccc(F)cc2)C(C)C(O)C1(C)O.O=CO (stereo not shown) [Example 68, 9a-(3-{[(4-Fluorophenyl)acetyl]amino}propyl)-9-deoxo-9-dihydro-9a-aza-9a-homoerythromycin A Formiate Salt]",IC50 W2,[1],C (200 < X ≦ 1000)
same,IC50 3D7A,[2],F (2800 < X ≦ 3500)
"CC[C@H]1OC(=O)[C@H](C)[C@@H](O[C@H]2C[C@@](C)(OC)[C@@H](O)[C@H](C)O2)[C@H](C)[C@@H](O[C@@H]2O[C@H](C)C[C@H](N(C)C)[C@H]2O)[C@](C)(O)C[C@@H](C)CN(CCCNC(=O)/C=C/c2cnc3ccccc3c2)[C@H](C)[C@@H](O)[C@]1(C)O [Example 76, 9a-(3-{[(2E)-3-(Quinolin-3-yl)-2-propenoyl]amino}propyl)-9-deoxo-9-dihydro-9a-aza-9a-homoerythromycin A]",IC50,[1],0.2 to 1 µg/mL
same,IC50,[2],0.2 to 1 µg/mL
"CC[C@H]1OC(=O)[C@H](C)[C@@H](O[C@H]2C[C@@](C)(OC)[C@@H](O)[C@H](C)O2)[C@H](C)[C@@H](O[C@@H]2O[C@H](C)C[C@H](N(C)C)[C@H]2O)[C@](C)(O)C[C@@H](C)CN(CCCNC(=O)Cc2ccccc2[N+](=O)[O-])[C@H](C)[C@@H](O)[C@]1(C)O.O=CO [Example 67, 9a-(3-{[(2-Nitrophenyl)acetyl]amino}propyl)-9-deoxo-9-dihydro-9a-aza-9a-homoerythromycin A Formiate Salt]",IC50 W2,[1],D (1000 < X ≦ 2500)
same,IC50 3D7A,[2],H (5000 < X ≦ 10000)
CC(=O)O.CC(=O)O.CC(=O)O.CCC1OC(=O)C(C)C(OC2CC(C)(OC)C(O)C(C)O2)C(C)C(OC2OC(C)CC(N(C)C)C2O)C(C)(O)CC(C)CN(CCCNc2ccnc3cc(Cl)ccc23)C(C)C(O)C1(C)O (stereo not shown) [Example 77],IC50 W2,[1],A (X ≦ 100)
same,IC50 3D7A,[2],A (X ≦ 100)
"CCC1OC(=O)C(C)C(OC2CC(C)(OC)C(O)C(C)O2)C(C)C(OC2OC(C)CC(N(C)C)C2O)C(C)(O)CC(C)CN(CCCNC(=O)c2cc(F)c(F)c(OC)c2F)C(C)C(O)C1(C)O.O=CO (stereo not shown) [Example 59, 9a-[3-({[2,4,5-Trifluoro-3-(methyloxy)phenyl]carbonyl}amino)propyl]-9-deoxo-9-dihydro-9a-aza-9a-homoerythromycin A Formiate Salt]",IC50 W2,[1],B (100 < X ≦ 200)
same,IC50 3D7A,[2],D (1000 < X ≦ 2500)
"CC[C@H]1OC(=O)[C@H](C)[C@@H](O[C@H]2C[C@@](C)(OC)[C@@H](O)[C@H](C)O2)[C@H](C)[C@@H](O[C@@H]2O[C@H](C)C[C@H](N(C)C)[C@H]2O)[C@](C)(O)C[C@@H](C)CN(CCCNCc2ccc3ccccc3c2)[C@H](C)[C@@H](O)[C@]1(C)O [Example 54, 9a-{3-[(Naphtalen-2-yl-methyl)amino]propyl}-9-deoxo-9-dihydro-9a-aza-9a-homoerythromycin A]",IC50,[1],< 0.1 µg/mL
same,IC50,[2],0.1 to 0.2 µg/mL
"CCC1OC(=O)C(C)C(OC2CC(C)(OC)C(O)C(C)O2)C(C)C(OC2OC(C)CC(N(C)C)C2O)C(C)(O)CC(C)CN(CCCNC(=O)c2cc(Cl)ccc2[N+](=O)[O-])C(C)C(O)C1(C)O.O=CO (stereo not shown) [Example 66, 9a-(3-{[(5-Chloro-2-nitrophenyl)carbonyl]amino}propyl)-9-deoxo-9-dihydro-9a-aza-9a-homoerythromycin A Formiate Salt]",IC50 W2,[1],C (200 < X ≦ 1000)
same,IC50 3D7A,[2],D (1000 < X ≦ 2500)
"CCC1OC(=O)C(C)C(OC2CC(C)(OC)C(O)C(C)O2)C(C)C(OC2OC(C)CC(N(C)C)C2O)C(C)(O)CC(C)CN(CCCNC(=O)Cc2cccc(Cl)c2)C(C)C(O)C1(C)O.O=CO (stereo not shown) [Example 62, 9a-(3-{[(3-Chlorophenyl)acetyl]amino}propyl)-9-deoxo-9-dihydro-9a-aza-9a-homoerythromycin A Formiate Salt]",IC50 W2,[1],C (200 < X ≦ 1000)
same,IC50 3D7A,[2],C (200 < X ≦ 1000)
9a-(3-{[(4-Nitrophenyl)acetyl]amino}propyl)-9-deoxo-9-dihydro-9a-aza-9a-homoerythromycin A Formiate Salt [Example 64],IC50 W2,[1],C (200 < X ≦ 1000)
same,IC50 3D7A,[2],D (1000 < X ≦ 2500)
"CC[C@H]1OC(=O)[C@H](C)[C@@H](O[C@H]2C[C@@](C)(OC)[C@@H](O)[C@H](C)O2)[C@H](C)[C@@H](O[C@@H]2O[C@H](C)C[C@H](N(C)C)[C@H]2O)[C@](C)(O)C[C@@H](C)CN(CCCNCC2CCNc3ccccc32)[C@H](C)[C@@H](O)[C@]1(C)O (stereo partly shown) [Example 55, 9a-{3-[(1,2,3,4-tetrahydro-quinolin-4-yl-methyl)amino]propyl}-9-deoxo-9-dihydro-9a-aza-9a-homoerythromycin A]",IC50,[1],< 0.1 µg/mL
same,IC50,[2],0.2 to 1 µg/mL
"CC[C@H]1OC(=O)[C@H](C)[C@@H](O)[C@H](C)[C@@H](O[C@@H]2O[C@H](C)C[C@H](N(C)C)[C@H]2O)[C@](C)(O)C[C@@H](C)CN(CCCNCc2cccnc2)[C@H](C)[C@@H](O)[C@]1(C)O [Example 13, 9a-{3-[(Pyridine-3-yl-methyl)amino]propyl}-3-O-decladinosyl-9-deoxo-9-dihydro-9a-aza-9a-homoerythromycin A]",IC50 W2,[3],C (200 < X ≦ 1000)
same,IC50 TM91C235,P. falciparum TM91C235,D (1000 < X ≦ 2500)
same,IC50 D6,[4],G (3500 < X ≦ 5000)
CC[C@H]1OC(=O)[C@H](C)[C@@H](O[C@H]2C[C@@](C)(OC)[C@@H](O)[C@H](C)O2)[C@H](C)[C@@H](O[C@@H]2O[C@H](C)C[C@H](N(C)C)[C@H]2O)[C@](C)(O)C[C@@H](C)CN(CCC(=O)NCCCc2ccccc2)[C@H](C)[C@@H](O)[C@]1(C)O [Example 40],IC50,"[3]; Plasmodium falciparum, read-out: IC50 W2",0.1 to 0.2 µg/mL
same,IC50,"P. falciparum TM91C235; Plasmodium falciparum, read-out: IC50 TM91C235",0.1 to 0.2 µg/mL
same,IC50,"[4]; Plasmodium falciparum, read-out: IC50 D6",0.2 to 1 µg/mL
